By ED50 is commonly meant the dose at which the effect has come halfway, by size or by number of responders. The IC50 is the midpoint of a concentration-inhibition curve. A high value points to lower potency. Usually logP stands for the decadic logarithm of the partition coefficient of the neutral form, usually between octanol and water. Higher therefore signals higher lipophilicity.

One data set concerns Rattus norvegicus. As to the kind of experiment: Androgenic activity in orchidectomized rat assessed as stimulation of prostate weight treated subcutaneously once daily for 14 days by Hershberger assay. The data set is classed as organism-based. The note with it: Prostate gland, sc, 336 h.
The target in a further data set is T1, Progesterone receptor (Homo sapiens, UniProt P06401).
T1 sequence (P06401 whole entry): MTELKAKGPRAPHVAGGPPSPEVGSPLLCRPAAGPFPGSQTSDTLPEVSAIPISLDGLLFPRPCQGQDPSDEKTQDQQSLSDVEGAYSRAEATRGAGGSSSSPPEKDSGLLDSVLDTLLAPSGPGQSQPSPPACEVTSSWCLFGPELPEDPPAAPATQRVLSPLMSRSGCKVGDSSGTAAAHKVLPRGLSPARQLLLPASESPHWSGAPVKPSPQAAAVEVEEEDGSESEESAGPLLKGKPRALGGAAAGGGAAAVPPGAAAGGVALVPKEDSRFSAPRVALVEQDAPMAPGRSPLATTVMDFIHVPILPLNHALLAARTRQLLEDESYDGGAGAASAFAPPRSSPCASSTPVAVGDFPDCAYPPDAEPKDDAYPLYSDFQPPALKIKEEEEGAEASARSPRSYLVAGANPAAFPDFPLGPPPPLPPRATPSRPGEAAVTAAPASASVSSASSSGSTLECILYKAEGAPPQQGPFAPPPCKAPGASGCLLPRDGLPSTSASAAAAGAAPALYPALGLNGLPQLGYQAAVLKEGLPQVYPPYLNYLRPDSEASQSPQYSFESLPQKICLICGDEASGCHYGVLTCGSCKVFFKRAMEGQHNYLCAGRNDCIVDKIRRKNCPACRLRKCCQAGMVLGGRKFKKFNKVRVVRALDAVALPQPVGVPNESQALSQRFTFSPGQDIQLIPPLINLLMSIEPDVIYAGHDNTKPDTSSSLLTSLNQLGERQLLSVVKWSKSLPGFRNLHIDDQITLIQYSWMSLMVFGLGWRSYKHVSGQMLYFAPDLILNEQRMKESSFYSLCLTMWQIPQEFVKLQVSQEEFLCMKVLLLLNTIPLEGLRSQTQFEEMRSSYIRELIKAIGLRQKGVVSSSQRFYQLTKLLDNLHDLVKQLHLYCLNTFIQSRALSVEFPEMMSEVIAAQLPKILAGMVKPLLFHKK
Description: Binding affinity to progesterone receptor (unknown origin) incubated for 4 hrs.

Another data set addresses T2, Glucocorticoid receptor (Homo sapiens, UniProt P04150).
T2 sequence (P04150 whole entry): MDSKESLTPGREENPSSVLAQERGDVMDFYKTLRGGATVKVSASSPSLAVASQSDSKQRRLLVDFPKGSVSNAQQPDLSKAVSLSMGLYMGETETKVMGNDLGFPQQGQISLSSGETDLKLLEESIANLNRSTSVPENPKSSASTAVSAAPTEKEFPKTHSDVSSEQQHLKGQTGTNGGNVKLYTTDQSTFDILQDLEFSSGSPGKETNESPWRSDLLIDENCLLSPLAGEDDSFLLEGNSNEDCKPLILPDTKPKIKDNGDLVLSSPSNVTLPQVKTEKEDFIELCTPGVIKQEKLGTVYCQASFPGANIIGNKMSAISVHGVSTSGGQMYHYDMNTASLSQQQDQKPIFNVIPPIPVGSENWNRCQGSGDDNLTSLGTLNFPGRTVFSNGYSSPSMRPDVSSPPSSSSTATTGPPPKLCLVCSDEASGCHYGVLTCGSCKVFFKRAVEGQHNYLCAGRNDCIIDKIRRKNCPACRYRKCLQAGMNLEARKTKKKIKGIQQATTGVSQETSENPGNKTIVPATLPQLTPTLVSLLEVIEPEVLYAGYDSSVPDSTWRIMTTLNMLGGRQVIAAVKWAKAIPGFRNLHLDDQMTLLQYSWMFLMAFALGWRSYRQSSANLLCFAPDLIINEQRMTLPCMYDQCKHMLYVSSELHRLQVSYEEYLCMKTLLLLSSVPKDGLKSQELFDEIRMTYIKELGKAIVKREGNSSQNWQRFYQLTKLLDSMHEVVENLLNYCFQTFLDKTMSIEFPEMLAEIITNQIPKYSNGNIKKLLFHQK
Description: Binding affinity to glucocorticoid receptor (unknown origin) incubated for 4 hrs.

Data set [1] is described as follows: Lipophilicity, logP of the compound. The data set is classed as physicochemical. Conditions: octanol/water.

Turning to `CO[C@@H]1C(c2ccc(C#N)c(Cl)c2C)=NN2CC[C@H](O)[C@@H]12`, the ED50 in the data set on Rattus norvegicus was 2.73 mg/kg. Moreover, the IC50 was 0.7 µM on Progesterone receptor and > 1 µM on Glucocorticoid receptor. In data set [1], this molecule yielded a logP of 2.

These data come from ChEMBL document CHEMBL3351728, “3-alkoxy-pyrrolo[1,2-b]pyrazolines as selective androgen receptor modulators with ideal physicochemical properties for transdermal administration” (J Med Chem, 2014).
